Experiments:
P2X7 [1] = molecular target: T1, P2X7 (Homo sapiens, UniProt Q99572); assay: Pore permeation assay (YO PRO dye uptake, BzATP-induced); type: cell-based; set-up: expressed in transfected cells; host or cells: HEK293; settings: HEK293 transfected with human P2X7 receptor, BzATP 10 uM, read-out: hP2X7 IC50
T1 sequence (Q99572 1-595): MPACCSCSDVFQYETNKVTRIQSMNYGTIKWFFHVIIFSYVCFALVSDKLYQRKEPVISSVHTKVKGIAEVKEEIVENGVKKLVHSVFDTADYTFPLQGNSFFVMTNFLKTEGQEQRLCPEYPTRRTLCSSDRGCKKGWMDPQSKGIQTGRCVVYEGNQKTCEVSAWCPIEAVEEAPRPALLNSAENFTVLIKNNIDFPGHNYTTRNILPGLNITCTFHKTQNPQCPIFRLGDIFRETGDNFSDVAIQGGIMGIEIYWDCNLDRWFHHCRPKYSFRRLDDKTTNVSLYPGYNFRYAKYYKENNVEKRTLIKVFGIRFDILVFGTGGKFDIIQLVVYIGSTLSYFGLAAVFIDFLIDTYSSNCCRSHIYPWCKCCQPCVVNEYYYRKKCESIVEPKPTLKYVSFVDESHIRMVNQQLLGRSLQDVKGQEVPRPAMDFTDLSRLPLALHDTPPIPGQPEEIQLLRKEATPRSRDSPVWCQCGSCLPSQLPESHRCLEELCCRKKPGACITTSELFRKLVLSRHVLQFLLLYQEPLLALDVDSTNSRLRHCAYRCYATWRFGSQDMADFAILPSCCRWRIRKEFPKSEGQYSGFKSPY
In short: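 HEK293 cells overexpressing human P2X7 were plated overnight, then placed in low-divalent HEPES buffer pH 7.4 (0.1 mM CaCl2, 125 mM NaCl). Compounds (10 points from 2.5 μM) were preincubated for 20 min at room temperature. YO-PRO (1 μM) was added with BzATP (10 μM), and dye uptake was read by fluorescence after 30 min.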

P2X7 [2] = molecular target: T1, P2X7; assay: IL-1β release assay in THP-1 cells (sandwich ELISA, BzATP-stimulated); type: cell-based; set-up: endogenous in cells; host or cells: THP-1 cells (PMA-differentiated, LPS-primed); settings: LPS primed, 0.8 mM BzATP, mature IL-1β release, read-out: hTHP-1/IL-ib IC50

For `O=C(NCC1(O)CCC(F)(F)CC1)c1cc(C2CCCO2)n2cccc(Cl)c12` (centres unmarked) [Compound 48, 8-Chloro-3-(tetrahydro-furan-2-yl)-indolizine-1-carboxylic Acid (4,4-difluoro-1-hydroxycyclohexyl methyl)-amide], the IC50 (P2X7 [1]) was 10 to 100 nM and the IC50 (P2X7 [2]) was 10 to 100 nM.
With `O=C(NCC1CCC(F)(F)CC1)c1cc(CCO)n2cccc(Cl)c12` [Compound 51, 8-chloro-N-((4,4-difluorocyclohexyl)methyl)-3-(2-hydroxyethyl)indolizine-1-carboxamide] the IC50 (P2X7 [1]) was 10 to 100 nM and the IC50 (P2X7 [2]) was 101 to 500 nM.
Work on `COCCc1cc(C(=O)NCC2(O)CCC(F)(F)CC2)c2c(Cl)cccn12` [Compound 53, 8-chloro-N-((4,4-difluoro-1-hydroxycyclohexyl)methyl)-3-(2-methoxyethyl)indolizine-1-carboxamide] yielded an IC50 (P2X7 [1]) of 10 to 100 nM and an IC50 (P2X7 [2]) of 10 to 100 nM.
For `O=C(NCC1(O)CCCC(F)(F)C1)c1cc(C2CCCO2)n2cccc(Cl)c12` (centres unmarked) [Compound 54, 8-Chloro-3-(tetrahydro-furan-2-yl)-indolizine-1-carboxylic Acid (3,3-difluoro-1-hydroxycyclohexyl methyl)-amide], the IC50 (P2X7 [1]) was < 10 nM and the IC50 (P2X7 [2]) was 10 to 100 nM.
`COCCc1cc(C(=O)NCC2(O)CCCC(F)(F)C2)c2c(C)cccn12` (centres unmarked) [Compound 57, 3-(2-Methoxy-ethyl)-8-methyl-indolizine-1-carboxylic Acid (3,3-difluoro-1-hydroxy-cyclohexylmethyl)-amide] was tested, and the IC50 (P2X7 [1]) was 101 to 500 nM and the IC50 (P2X7 [2]) was 101 to 500 nM.
In the case of `COCCc1cc(C(=O)NCC2(O)CCCC(F)(F)C2)c2c(C(F)(F)F)cccn12` (centres unmarked) [Compound 60, 3-(2-Methoxy-ethyl)-8-trifluoro methylindolizine-1-carboxylic Acid (3,3-difluoro-1-hydroxy-cyclohexylmethyl)-amide], the IC50 (P2X7 [1]) is reported as 101 to 500 nM and the IC50 (P2X7 [2]) is reported as 10 to 100 nM.
`O=C(NCC1(O)CCC(F)(F)CC1)c1cc(C2CCOC2)n2cccc(Cl)c12` (centres unmarked) [Compound 61, 8-chloro-N-((4,4-difluoro-1-hydroxycyclohexyl)methyl)-3-(tetrahydrofuran-3-yl)indolizine-1-carboxamide] gave an IC50 (P2X7 [1]) of 10 to 100 nM and an IC50 (P2X7 [2]) of 10 to 100 nM.
In the case of `COCCc1cc(C(=O)NCC2(O)CCCC(F)(F)C2)c2c(Cl)cccn12` (centres unmarked) [Compound 62, 8-Chloro-3-(2-methoxy-ethyl)-indolizine-1-carboxylic Acid (3,3-difluoro-1-hydroxycyclohexylmethyl)-amide], the IC50 (P2X7 [1]) is reported as < 10 nM and the IC50 (P2X7 [2]) is reported as 10 to 100 nM.
Work on `COCCc1cc(C(=O)NC[C@]2(O)CCCC(F)(F)C2)c2c(Cl)cccn12` [Compound 64, 8-Chloro-3-(2-methoxy-ethyl)-indolizine-1-carboxylic Acid ((S)-3,3-difluoro-1-hydroxy-cyclohexylmethyl)-amide] yielded an IC50 (P2X7 [1]) of 10 to 100 nM and an IC50 (P2X7 [2]) of 101 to 500 nM.
`O=C(NCC1(O)CCCC(F)(F)C1)c1cc(C2CCOC2)n2cccc(Cl)c12` (centres unmarked) [Compound 65, 8-Chloro-3-(tetrahydro-furan-3-yl)-indolizine-1-carboxylic Acid (3,3-difluoro-1-hydroxycyclohexyl methyl)-amide] showed an IC50 (P2X7 [1]) of 10 to 100 nM and an IC50 (P2X7 [2]) of 10 to 100 nM.
With `O=C(NC[C@@]1(O)CCCC(F)(F)C1)c1cc(C2CCOC2)n2cccc(Cl)c12` (stereo partly drawn) [Compound 66, 8-chloro-N—(((R)-3,3-difluoro-1-hydroxycyclohexyl)methyl)-3-(tetrahydrofuran-3-yl)indolizine-1-carboxamide] the IC50 (P2X7 [1]) was 10 to 100 nM and the IC50 (P2X7 [2]) was 101 to 500 nM.
`O=C(NC[C@]1(O)CCCC(F)(F)C1)c1cc(C2CCOC2)n2cccc(Cl)c12` (stereo partly drawn) [Compound 67, 8-chloro-N—(((S)-3,3-difluoro-1-hydroxycyclohexyl)methyl)-3-(tetrahydrofuran-3-yl)indolizine-1-carboxamide] showed an IC50 (P2X7 [1]) of 10 to 100 nM and an IC50 (P2X7 [2]) of 10 to 100 nM.
In the case of `CCOCCc1cc(C(=O)NCC2(O)CCC(F)(F)CC2)c2c(Cl)cccn12` [Compound 69, 8-Chloro-3-(2-ethoxy-ethyl)-indolizine-1-carboxylic Acid (4,4-difluoro-1-hydroxy-cyclohexylmethyl)-amide], the IC50 (P2X7 [1]) is reported as 101 to 500 nM and the IC50 (P2X7 [2]) is reported as 101 to 500 nM.
In the case of `CCOCCc1cc(C(=O)NCC2(O)CCCC(F)(F)C2)c2c(Cl)cccn12` (centres unmarked) [Compound 70, 8-Chloro-3-(2-ethoxy-ethyl)-indolizine-1-carboxylic Acid (3,3-difluoro-1-hydroxy-cyclohexylmethyl)-amide], the IC50 (P2X7 [1]) is reported as 10 to 100 nM and the IC50 (P2X7 [2]) is reported as 10 to 100 nM.
With `C[C@@H]1CCC[C@](O)(CNC(=O)c2cc(C3CCC3)n3cccc(Cl)c23)C1` [Compound 71, 8-chloro-3-cyclobutyl-N-(((1R,3R)-1-hydroxy-3-methylcyclohexyl)methyl) indolizine-1-carboxamide] the IC50 (P2X7 [1]) was 10 to 100 nM and the IC50 (P2X7 [2]) was 10 to 100 nM.
`[2H]C([2H])([2H])OCCc1cc(C(=O)NCC2CCC(F)(F)CC2)c2c(Cl)cccn12` [Compound 72] showed an IC50 (P2X7 [1]) of 10 to 100 nM and an IC50 (P2X7 [2]) of 10 to 100 nM.
For `CCOCCc1cc(C(=O)NC[C@@]2(O)CCC[C@@H](C)C2)c2c(Cl)cccn12` [Compound 73], the IC50 (P2X7 [1]) was 10 to 100 nM and the IC50 (P2X7 [2]) was 10 to 100 nM.
“(R)-8-chloro-N-((4,4-difluoro-1-hydroxycyclohexyl)methyl)-3-((tetrahydrofuran-3-yl)methyl)indolizine-1-carboxamide [Compound 50]” was tested, and the IC50 (P2X7 [1]) was 10 to 100 nM and the IC50 (P2X7 [2]) was 101 to 500 nM.
“(S)-8-chloro-N-((4,4-difluoro-1-hydroxycyclohexyl)methyl)-3-((tetrahydrofuran-3-yl)methyl)indolizine-1-carboxamide [Compound 52]” gave an IC50 (P2X7 [1]) of 10 to 100 nM and an IC50 (P2X7 [2]) of 10 to 100 nM.
